# Assay results reported in US9260425B2 (Genetech, Inc., priority 2011, dated 2016).
# Target: Pim-1 (Homo sapiens (Human), UniProt P11309)
# Test: Pim kinase binding activity assay (Example 901), PIM-1 enzyme, Caliper microfluidic peptide phosphorylation
# Type: biochemical
# Details: 20 pM PIM-1, 10 μM ATP, 1 μM FAM-peptide, 90 minutes at room temperature
# Summary of the method: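 PIM-1 at 20 pM phosphorylated 1 μM FAM-labelled Pim peptide with 10 μM ATP in HEPES pH 7.2, MgCl2, Tween 20 and DTT for 90 min at room temperature. EDTA stopped the reaction, and product and substrate were resolved by microfluidic electrophoresis (ex 488/em 530 nm). Ki was derived from substrate conversion.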
# Pim-1, sequence (P11309 whole entry): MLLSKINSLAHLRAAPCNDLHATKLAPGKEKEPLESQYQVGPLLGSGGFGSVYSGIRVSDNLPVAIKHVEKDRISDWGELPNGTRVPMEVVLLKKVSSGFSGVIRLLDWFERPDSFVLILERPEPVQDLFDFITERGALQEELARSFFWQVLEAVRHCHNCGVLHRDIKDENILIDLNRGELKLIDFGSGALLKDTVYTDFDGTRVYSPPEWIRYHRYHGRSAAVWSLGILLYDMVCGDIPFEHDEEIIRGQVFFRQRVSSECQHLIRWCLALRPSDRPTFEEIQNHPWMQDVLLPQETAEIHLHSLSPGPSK
row,SMILES,Ki [nM]
1,"N[C@H]1CCCN(c2cccc(-c3n[nH]c4cnc(N5CCOC5=O)cc34)n2)C1 [Example 374, (S)-3-(3-(6-(3-aminopiperidin-1-yl)pyridin-2-yl)-1H-pyrazolo[3,4-c]pyridin-5-yl)oxazolidin-2-one]",85
2,"Fc1ccc(-c2cc3c(-c4cccc(N5CCNCC5)n4)n[nH]c3cn2)cn1 [Example 378, 5-(6-fluoropyridin-3-yl)-3-(6-(piperazin-1-yl)pyridin-2-yl)-1H-pyrazolo[3,4-c]pyridine]",0.796
3,"CC(C)(CN)Cn1cc(-c2n[nH]c3cnc(-c4cccnc4)cc23)ccc1=O [Example 379, 1-(3-amino-2,2-dimethylpropyl)-5-(5-(pyridin-3-yl)-1H-pyrazolo[3,4-c]pyridin-3-yl)pyridin-2(1H)-one]",1.29
4,"N[C@H]1CCCN(c2cccc(-c3n[nH]c4cnc(-n5ccnc5)cc34)n2)C1 [Example 380, (S)-1-(6-(5-(1H-imidazol-1-yl)-1H-pyrazolo[3,4-c]pyridin-3-yl)pyridin-2-yl)piperidin-3-amine]",0.523
5,"Cn1cc(-c2cc3c(-c4ccc(Br)c(N5CC(N6CCS(=O)(=O)CC6)C5)n4)n[nH]c3cn2)cn1 [Example 387, 4-(1-(3-bromo-6-(5-(1-methyl-1H-pyrazol-4-yl)-1H-pyrazolo[3,4-c]pyridin-3-yl)pyridin-2-yl)azetidin-3-yl)-1,1-dioxothiomorpholine]",1.59
6,"CC(C)n1cc(-c2cc3c(-c4cccc(N5CCNCC5)n4)n[nH]c3cn2)cn1 [Example 389, 5-(1-isopropyl-1H-pyrazol-4-yl)-3-(6-(piperazin-1-yl)pyridin-2-yl)-1H-pyrazolo[3,4-c]pyridine]",0.213
7,"Cn1cc(-c2cc3c(-c4ccc(Br)c(N5CCC[C@H](O)C5)n4)n[nH]c3cn2)cn1 [Example 393, (S)-1-(3-bromo-6-(5-(1-methyl-1H-pyrazol-4-yl)-1H-pyrazolo[3,4-c]pyridin-3-yl)pyridin-2-yl)piperidin-3-ol]",0.333
8,"Cn1cc(-c2cc3c(-c4ccc(Br)c(N5CCC[C@@H](O)C5)n4)n[nH]c3cn2)cn1 [Example 394, (R)-1-(3-bromo-6-(5-(1-methyl-1H-pyrazol-4-yl)-1H-pyrazolo[3,4-c]pyridin-3-yl)pyridin-2-yl)piperidin-3-ol]",0.316
9,CCn1cc(-c2cc3c(-c4cccc(N5C[C@H]6CNC[C@H]6C5)n4)n[nH]c3cn2)cn1 [Example 395],0.404

# Compounds with a lower Ki, results first:
row,Ki [nM],SMILES
1,0.039,"CCCn1cc(-c2cc3c(-c4cccc(N5CCNCC5)n4)n[nH]c3cn2)cn1 [Example 375, 3-(6-(piperazin-1-yl)pyridin-2-yl)-5-(1-propyl-1H-pyrazol-4-yl)-1H-pyrazolo[3,4-c]pyridine]"
2,0.041,"Cc1cncc(-c2cc3c(-c4cccc(N5CCNCC5)n4)n[nH]c3cn2)c1 [Example 384, 5-(5-methylpyridin-3-yl)-3-(6-(piperazin-1-yl)pyridin-2-yl)-1H-pyrazolo[3,4-c]pyridine]"
3,0.131,"CCn1cc(-c2cc3c(-c4cccc(N5C[C@@H](N)C[C@@H](F)C5)n4)n[nH]c3cn2)cn1 [Example 385, (3S,5R)-1-(6-(5-(1-ethyl-1H-pyrazol-4-yl)-1H-pyrazolo[3,4-c]pyridin-3-yl)pyridin-2-yl)-5-fluoropiperidin-3-amine]"
4,0.108,"FCCn1cc(-c2cc3c(-c4cccc(N5CCNCC5)n4)n[nH]c3cn2)cn1 [Example 391, 5-(1-(2-fluoroethyl)-1H-pyrazol-4-yl)-3-(6-(piperazin-1-yl)pyridin-2-yl)-1H-pyrazolo[3,4-c]pyridine]"
5,0.03,"Cn1cc(-c2cc3c(-c4ccc(Br)c(N5CCC(N)CC5)n4)n[nH]c3cn2)cn1 [Example 392, 1-(3-bromo-6-(5-(1-methyl-1H-pyrazol-4-yl)-1H-pyrazolo[3,4-c]pyridin-3-yl)pyridin-2-yl)piperidin-4-amine]"
6,0.081,"CCn1cc(-c2cc3c(-c4cccc(N5CCN[C@@H](C)C5)n4)n[nH]c3cn2)cn1 [Example 396, (S)-5-(1-ethyl-1H-pyrazol-4-yl)-3-(6-(3-methylpiperazin-1-yl)pyridin-2-yl)-1H-pyrazolo[3,4-c]pyridine]"
